Where two headings read alike, the source gives them in different places. Values belong to the compound of their own block, whether it stands above or below them.
Key:
NFkB-SEAP = test: THP1-Dual cells transfected with DNA, nfkb expression (Quantiblue); assay type: cell-based; conditions: Homo sapiens; for inhibition at 10 µM: THP-1, 10 μM; for inhibition at 30 µM: THP-1, 30 μM
Method in brief: (§1)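 Readouts after overnight incubation: Quantiluc luminescence for Ifnb, Quantiblue for nfkb (both in supernatant) and CellTiter-Glo for viability. Before the DNA stimulus (2 ug/ml, lipofectamine transfection), THP1-Dual cells received compound at several dilutions for 4 h.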

h-cGAS = h-cGAS (Homo sapiens, UniProt Q8N884); test: Cell-free human cGAS enzyme inhibition assay (ATP depletion, Kinase-Glo Max); assay type: biochemical; conditions: 3 h; for inhibition at 1 µM: read-out: h-cGAS, conc. 1 μM; for inhibition at 10 µM: read-out: h-cGAS, conc. 10 μM
m-cGAS = m-cGAS (Mus musculus, UniProt Q8C6L5); test: Cell-free mouse cGAS enzyme inhibition assay (ATP depletion, Kinase-Glo Max); assay type: biochemical; conditions: 1 h; for inhibition at 1 µM: read-out: m-cGAS, conc. 1 μM; for inhibition at 10 µM: read-out: m-cGAS, conc. 10 μM
[1] = Protein binding in mouse brain homogenates; assay type: in vitro ADME; conditions: for recovery at 6 h / fraction unbound at 6 hr: brain homogenate; for fraction unbound at 6 hr: read-out: % BoundBrain (converted)
IFNB = test: THP1-Dual cells transfected with DNA, Ifnb expression (Quantiluc); assay type: cell-based; conditions: Homo sapiens; for inhibition at 10 µM: THP-1, 10 μM; for inhibition at 30 µM: THP-1, 30 μM
Method in brief: as §1

[2] = Metabolic stability in human liver microsomes; conditions: for Remaining (NCF = 60 min) / Remaining (T = 60 min): human liver microsomes; for Remaining (NCF = 60 min): no co-factor (no NADPH); for Remaining (T = 60 min): 60 min with NADPH; for CLint scaled / half-life / microsomal CLint: human, liver microsomes
[3] = Metabolic stability in mouse liver microsomes; conditions: for Remaining (NCF = 60 min) / Remaining (T = 60 min): mouse liver microsomes; for Remaining (NCF = 60 min): no co-factor (no NADPH); for Remaining (T = 60 min): 60 min with NADPH; for CLint scaled / half-life / microsomal CLint: mouse, liver microsomes
THP1 cells = test: THP1-Dual cells, cell viability (CellTiter-Glo); assay type: cell-based
Method in brief: as §1

PDE4D2 = PDE4D2 (Homo sapiens, UniProt Q08499); test: Safety panel screening, PDE4D2 IMAP; assay type: biochemical; conditions: read-out: Mean percentage inhibition (%) at 10 μM, PDE4D2
hERG = hERG (Homo sapiens, UniProt Q12809); test: Safety panel screening, hERG automated patch clamp; assay type: cell-based; conditions: read-out: Mean percentage inhibition (%) at 10 μM, hERG
D1 = D1 (Homo sapiens, UniProt P21728); test: Safety panel screening, D1 cAMP assay; assay type: cell-based
[4] = Pharmacokinetic study, plasma and brain PK parameters after I.P. dosing; assay type: in vivo, mouse; conditions: 25 mg/Kg I.P.; for Kp: brain/plasma, 25 mg/kg
Method: To test pharmacokinetics, TDI-6570 ([…] solution in water containing 0.2% Tween 80) was administered to 8-weeks old CD-1 male mice (n=3 for each time point) intraperitoneally (IP) and both plasma (EDTA-K2) and brain tissues were collected at various time points (0.5, 2, 4, 8 and 24 hours post drug administration). Transcardial perfusion were performed with saline prior to brain collection. Bioanalysis of brain tissue and plasma extracts were performed by LC-MS/MS.

5HT2B = 5HT2B (Homo sapiens, UniProt P41595); test: Safety panel screening, 5HT2B Ca2+ mobilization; assay type: cell-based
SET = SET (Homo sapiens, UniProt P31645); test: Safety panel screening, serotonin transporter neurotransmitter uptake; assay type: cell-based; conditions: read-out: Mean percentage inhibition (%) at 10 μM, SET
SET, sequence (P31645 whole entry): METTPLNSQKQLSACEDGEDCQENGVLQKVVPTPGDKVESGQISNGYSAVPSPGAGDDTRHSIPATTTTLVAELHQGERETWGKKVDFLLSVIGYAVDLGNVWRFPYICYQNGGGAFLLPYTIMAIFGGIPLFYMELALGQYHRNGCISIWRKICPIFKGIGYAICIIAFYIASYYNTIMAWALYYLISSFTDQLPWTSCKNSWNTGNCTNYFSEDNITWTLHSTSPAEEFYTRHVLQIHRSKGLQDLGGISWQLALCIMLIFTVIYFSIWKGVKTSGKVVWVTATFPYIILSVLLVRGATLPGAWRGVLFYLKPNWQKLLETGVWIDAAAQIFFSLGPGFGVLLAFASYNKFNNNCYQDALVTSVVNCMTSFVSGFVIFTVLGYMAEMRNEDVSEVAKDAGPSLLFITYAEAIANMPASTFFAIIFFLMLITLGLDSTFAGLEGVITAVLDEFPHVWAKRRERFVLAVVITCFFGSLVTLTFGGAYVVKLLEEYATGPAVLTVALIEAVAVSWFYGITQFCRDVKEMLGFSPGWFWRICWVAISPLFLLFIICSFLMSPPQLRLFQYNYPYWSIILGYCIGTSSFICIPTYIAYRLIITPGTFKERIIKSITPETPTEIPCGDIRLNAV

h-cGAS, sequence (Q8N884 whole entry): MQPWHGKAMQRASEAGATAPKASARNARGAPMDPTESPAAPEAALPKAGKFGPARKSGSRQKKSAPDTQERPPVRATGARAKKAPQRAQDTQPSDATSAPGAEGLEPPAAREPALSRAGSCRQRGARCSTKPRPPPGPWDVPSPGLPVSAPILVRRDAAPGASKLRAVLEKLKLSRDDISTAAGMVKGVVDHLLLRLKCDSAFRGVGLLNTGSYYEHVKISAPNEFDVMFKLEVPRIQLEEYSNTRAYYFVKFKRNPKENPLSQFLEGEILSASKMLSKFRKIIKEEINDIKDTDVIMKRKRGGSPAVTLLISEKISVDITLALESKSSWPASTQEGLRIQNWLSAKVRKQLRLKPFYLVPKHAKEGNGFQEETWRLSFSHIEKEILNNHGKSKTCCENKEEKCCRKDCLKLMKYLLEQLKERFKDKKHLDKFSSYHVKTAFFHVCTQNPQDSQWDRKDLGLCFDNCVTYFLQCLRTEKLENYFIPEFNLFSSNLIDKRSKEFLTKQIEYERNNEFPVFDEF
m-cGAS, sequence (Q8C6L5 whole entry): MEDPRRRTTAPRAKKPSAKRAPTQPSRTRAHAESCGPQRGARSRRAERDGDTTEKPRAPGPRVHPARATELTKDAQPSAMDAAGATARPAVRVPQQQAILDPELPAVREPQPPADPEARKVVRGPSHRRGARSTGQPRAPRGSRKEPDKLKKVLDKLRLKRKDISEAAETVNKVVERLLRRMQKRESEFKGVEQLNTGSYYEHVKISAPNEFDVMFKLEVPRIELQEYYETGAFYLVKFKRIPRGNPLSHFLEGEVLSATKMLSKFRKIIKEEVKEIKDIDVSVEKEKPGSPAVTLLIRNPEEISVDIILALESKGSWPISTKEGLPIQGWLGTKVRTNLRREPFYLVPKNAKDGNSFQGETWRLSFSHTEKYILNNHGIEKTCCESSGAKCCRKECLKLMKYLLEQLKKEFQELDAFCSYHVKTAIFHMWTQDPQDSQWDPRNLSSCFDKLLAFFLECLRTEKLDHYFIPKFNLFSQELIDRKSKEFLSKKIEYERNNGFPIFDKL
D1, sequence (P21728 whole entry): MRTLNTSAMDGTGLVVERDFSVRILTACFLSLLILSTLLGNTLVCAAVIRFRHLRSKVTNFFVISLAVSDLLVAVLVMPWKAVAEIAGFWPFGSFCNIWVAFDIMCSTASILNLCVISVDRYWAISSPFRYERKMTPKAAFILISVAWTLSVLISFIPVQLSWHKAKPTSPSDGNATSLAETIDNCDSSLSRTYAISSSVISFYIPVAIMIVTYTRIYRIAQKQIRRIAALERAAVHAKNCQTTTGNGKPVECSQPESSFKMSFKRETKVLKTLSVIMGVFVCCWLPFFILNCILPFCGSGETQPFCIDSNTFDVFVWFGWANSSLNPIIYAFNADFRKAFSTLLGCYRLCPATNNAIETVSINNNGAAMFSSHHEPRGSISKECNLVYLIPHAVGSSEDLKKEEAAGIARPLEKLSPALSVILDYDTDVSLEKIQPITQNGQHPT
5HT2B, sequence (P41595 whole entry, species assumed): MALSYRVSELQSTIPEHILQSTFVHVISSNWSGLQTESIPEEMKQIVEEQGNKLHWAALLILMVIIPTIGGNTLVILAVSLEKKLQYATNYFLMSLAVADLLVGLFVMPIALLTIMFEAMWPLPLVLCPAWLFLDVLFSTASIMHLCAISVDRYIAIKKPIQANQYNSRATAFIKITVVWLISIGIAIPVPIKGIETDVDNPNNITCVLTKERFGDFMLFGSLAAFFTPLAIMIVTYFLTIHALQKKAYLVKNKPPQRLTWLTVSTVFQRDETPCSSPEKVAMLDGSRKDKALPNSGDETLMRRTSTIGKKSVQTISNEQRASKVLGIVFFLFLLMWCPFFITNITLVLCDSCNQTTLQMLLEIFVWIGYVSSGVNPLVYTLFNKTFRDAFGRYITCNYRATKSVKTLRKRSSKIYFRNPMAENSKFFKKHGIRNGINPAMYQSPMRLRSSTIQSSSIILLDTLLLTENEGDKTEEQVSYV
hERG, sequence (Q12809 whole entry): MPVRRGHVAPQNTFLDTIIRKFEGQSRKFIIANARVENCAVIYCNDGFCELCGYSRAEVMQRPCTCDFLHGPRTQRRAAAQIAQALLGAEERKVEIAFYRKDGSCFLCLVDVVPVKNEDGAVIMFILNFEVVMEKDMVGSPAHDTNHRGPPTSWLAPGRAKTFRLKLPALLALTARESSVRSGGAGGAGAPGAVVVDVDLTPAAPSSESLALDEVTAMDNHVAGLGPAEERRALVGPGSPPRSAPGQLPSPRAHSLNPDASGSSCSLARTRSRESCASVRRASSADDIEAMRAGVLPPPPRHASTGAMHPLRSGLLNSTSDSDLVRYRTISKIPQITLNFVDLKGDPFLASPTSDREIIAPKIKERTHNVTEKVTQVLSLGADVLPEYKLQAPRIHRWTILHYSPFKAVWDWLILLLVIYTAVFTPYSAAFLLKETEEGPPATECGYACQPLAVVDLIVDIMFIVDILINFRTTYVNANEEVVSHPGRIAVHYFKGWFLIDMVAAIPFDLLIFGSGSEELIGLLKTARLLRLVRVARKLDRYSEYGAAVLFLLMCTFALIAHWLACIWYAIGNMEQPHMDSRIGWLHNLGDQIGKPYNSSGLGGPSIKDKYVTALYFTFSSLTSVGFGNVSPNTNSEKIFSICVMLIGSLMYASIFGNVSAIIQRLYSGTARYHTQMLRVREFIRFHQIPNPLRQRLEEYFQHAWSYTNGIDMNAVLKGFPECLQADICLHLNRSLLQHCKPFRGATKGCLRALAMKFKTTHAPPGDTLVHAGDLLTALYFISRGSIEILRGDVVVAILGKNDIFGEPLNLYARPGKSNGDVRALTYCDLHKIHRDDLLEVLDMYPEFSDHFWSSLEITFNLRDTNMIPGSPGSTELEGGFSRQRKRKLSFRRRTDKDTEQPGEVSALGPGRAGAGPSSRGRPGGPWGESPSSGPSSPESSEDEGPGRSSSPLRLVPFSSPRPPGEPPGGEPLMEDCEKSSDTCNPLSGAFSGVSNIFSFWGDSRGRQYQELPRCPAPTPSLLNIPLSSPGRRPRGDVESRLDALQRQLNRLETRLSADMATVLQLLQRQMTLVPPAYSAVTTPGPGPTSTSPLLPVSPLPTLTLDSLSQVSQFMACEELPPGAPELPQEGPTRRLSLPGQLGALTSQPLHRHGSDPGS
PDE4D2, sequence (Q08499 303-809): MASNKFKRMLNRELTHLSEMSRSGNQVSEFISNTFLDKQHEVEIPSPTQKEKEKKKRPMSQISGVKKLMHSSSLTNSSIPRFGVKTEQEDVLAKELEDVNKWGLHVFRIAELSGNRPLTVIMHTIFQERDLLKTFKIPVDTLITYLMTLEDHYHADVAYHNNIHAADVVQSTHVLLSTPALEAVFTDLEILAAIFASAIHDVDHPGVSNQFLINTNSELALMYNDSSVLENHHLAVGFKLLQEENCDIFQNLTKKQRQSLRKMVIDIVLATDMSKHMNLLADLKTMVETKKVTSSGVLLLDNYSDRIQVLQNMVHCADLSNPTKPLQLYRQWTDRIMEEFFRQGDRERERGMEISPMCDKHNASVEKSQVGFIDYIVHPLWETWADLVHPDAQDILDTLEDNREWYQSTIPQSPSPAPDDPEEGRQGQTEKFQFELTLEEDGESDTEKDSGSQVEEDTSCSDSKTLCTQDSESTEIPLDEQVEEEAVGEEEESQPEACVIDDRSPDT

inhibition at 1 µM (h-cGAS): 50 to 74%
inhibition at 10 µM (h-cGAS): 75 to 100%
inhibition at 1 µM (m-cGAS): 75 to 100%
inhibition at 10 µM (m-cGAS): 75 to 100%
LogK [1]: >4.39
% Remaining at 6 hr [1]: 90.87%
recovery at 6 h [1]: < 82.4%
fraction unbound at 6 hr [1]: < 4e-05
Remaining (NCF = 60 min) [2]: 109.6%
Remaining (T = 60 min) [2]: 87.6%
CLint scaled [2]: < 8.6 mL/min/kg
half-life [2]: > 2.42 h
microsomal CLint [2]: < 9.6 µL/min/mg
Remaining (NCF = 60 min) [3]: 90.0%
Remaining (T = 60 min) [3]: 72.5%
CLint scaled [3]: 38.5 mL/min/kg
half-life [3]: 2.38 h
microsomal CLint [3]: 9.7 µL/min/mg
SMILES: Cn1cc(-c2cc(Cl)c(Cl)c3oc4c(c23)CN(C(=O)CN)CC4)cn1 [Compound 33]
inhibition at 10 µM (NFkB-SEAP): 25 to 49%
inhibition at 30 µM (NFkB-SEAP): 75 to 100%
inhibition at 10 µM (IFNB): 25 to 49%
inhibition at 30 µM (IFNB): 75 to 100%
Cell viability 10 μM (THP1 cells): +++ (+, ++, and +++ mean the compound respectively shows 25-49%; 50-74%; or 75-100% viability to cells)
Cell viability 30 μM (THP1 cells): + (+, ++, and +++ mean the compound respectively shows 25-49%; 50-74%; or 75-100% viability to cells)

inhibition at 1 µM (h-cGAS): 75 to 100%
inhibition at 10 µM (h-cGAS): 75 to 100%
inhibition at 10 µM (m-cGAS): 25 to 49%
Remaining (NCF = 60 min) [2]: 116.1%
Remaining (T = 60 min) [2]: 88.2%
CLint scaled [2]: < 8.6 mL/min/kg
half-life [2]: > 2.42 h
microsomal CLint [2]: < 9.6 µL/min/mg
Remaining (NCF = 60 min) [3]: 97.7%
Remaining (T = 60 min) [3]: 80.1%
CLint scaled [3]: < 38 mL/min/kg
half-life [3]: > 2.42 h
microsomal CLint [3]: < 9.6 µL/min/mg
SMILES: Cn1cc(-c2cc(Cl)c(Cl)c3c2c2c(n3C)CCN(C(=O)CN)C2)cn1 [Compound 11]
inhibition at 10 µM (NFkB-SEAP): < 24%
inhibition at 30 µM (NFkB-SEAP): 50 to 74%
inhibition at 10 µM (IFNB): 50 to 74%
inhibition at 30 µM (IFNB): 75 to 100%
Cell viability 10 μM (THP1 cells): ++ (+, ++, and +++ mean the compound respectively shows 25-49%; 50-74%; or 75-100% viability to cells)
Cell viability 30 μM (THP1 cells): − (Cell viability <24%, in THP1 cells is expressed as “−”)

inhibition at 10 µM (h-cGAS): 25 to 49%
inhibition at 1 µM (m-cGAS): 25 to 49%
inhibition at 10 µM (m-cGAS): 50 to 74%
LogK [1]: >4.72
% Remaining at 6 hr [1]: 108.27%
recovery at 6 h [1]: < 88.4%
fraction unbound at 6 hr [1]: < 2e-05
AUC_%Extrap_obs (Brain) ([4]; brain): 1.62%
AUClast/D (Brain) ([4]; brain): 1354 mg·h/mL
Cmax (Brain) ([4]; brain): 3721 ng/mL
Kp ([4]; mouse, ip, read-out: AUClast Ratio (brain/plasma)): 0.989
Kp ([4]; mouse, ip, read-out: Cmax Ratio (brain/plasma)): 0.734
AUC(0-inf) ([4]; mouse, ip, brain, read-out: AUCInf (Brain)): 34400 ng·h/mL
AUC(0-t) ([4]; mouse, ip, brain, read-out: AUClast (Brain)): 33900 ng·h/mL
MRT inf ([4]; mouse, ip, brain, read-out: MRTInf_obs (Brain)): 6.51 h
half-life ([4]; mouse, ip, brain, read-out: T1/2 (Brain) (converted)): 3.86 h
Tmax ([4]; mouse, ip, brain, read-out: Tmax (Brain)): 4 h
Cmax ([4]; mouse, ip, plasma): 5070 ng/mL
AUC(0-inf) ([4]; mouse, ip, plasma, read-out: AUCInf (plasma)): 34300 ng·h/mL
AUC(0-t) ([4]; mouse, ip, plasma, read-out: AUClast (plasma)): 34200 ng·h/mL
MRT inf ([4]; mouse, ip, plasma, read-out: MRTInf_obs (plasma)): 4.76 h
half-life ([4]; mouse, ip, plasma, read-out: T1/2 (plasma) (converted)): 4.79 h
Tmax ([4]; mouse, ip, plasma, read-out: Tmax (plasma)): 2 h
AUC_%Extrap_obs (plasma) ([4]; plasma): 0.0536%
AUClast/D (plasma) ([4]; plasma): 1370 mg·h/mL
SMILES: O=C(CO)N1CCc2c(sc3c(Cl)c(Cl)cc(-c4cn[nH]c4)c23)C1 [Compound 63]
inhibition at 10 µM (NFkB-SEAP): 25 to 49%
inhibition at 30 µM (NFkB-SEAP): 75 to 100%
inhibition at 10 µM (PDE4D2): 73.2%
inhibition at 10 µM (hERG): 49.7%
Agonist Mode Mean percentage activation (%) at 10 μM, D1 (D1; agonist mode): 6.19%
inhibition at 10 µM (D1; antagonist mode, read-out: Antagonist Mode Mean percentage inhibition (%) at 10 μM, D1): 3.08%
inhibition at 10 µM (IFNB): 50 to 74%
inhibition at 30 µM (IFNB): 75 to 100%
Agonist Mode Mean percentage activation (%) at 10 μM, 5HT2B (5HT2B; agonist mode): 22.36%
inhibition at 10 µM (5HT2B; antagonist mode, read-out: Antagonist Mode Mean percentage inhibition (%) at 10 μM, 5HT2B): 49.4%
inhibition at 10 µM (SET): 15.2%
Cell viability 10 μM (THP1 cells): +++ (+, ++, and +++ mean the compound respectively shows 25-49%; 50-74%; or 75-100% viability to cells)
Cell viability 30 μM (THP1 cells): +++ (+, ++, and +++ mean the compound respectively shows 25-49%; 50-74%; or 75-100% viability to cells)

LogK [1]: 1.72
% Remaining at 6 hr [1]: 103.38%
recovery at 6 h [1]: 99.3%
fraction unbound at 6 hr [1]: 0.0188
SMILES: CCCc1nc2c(C)cc(-c3nc4ccccc4n3C)cc2n1Cc1ccc(-c2ccccc2C(=O)O)cc1 [Telmisartan, reference compound]

From patent publication US20250163052A1, “cGAS INHIBITORS AND USES THEREOF” (Cornell University, priority 2022, published 2025)
